These results are taken from ChEMBL document CHEMBL5252587, “Structure-activity relationship study of antitrypanosomal analogues of gibbilimbol B using multivariate analysis and computation-aided drug design” (Bioorg Med Chem Lett, 2023).

One data set relates to Trypanosoma cruzi. As to the kind of experiment: Antitrypanosomal activity against Trypanosoma cruzi trypomastigotes assessed as parasite growth inhibition. In kind it is functional, organism-based.
Another data set concerns Fibroblast. Description: Cytotoxicity against mouse NCTC Fibroblast cells assessed as inhibition of cell growth. In kind it is functional.
Data set [1] in a line: Selectivity index, ratio of CC50 for cytotoxicity against mouse NCTC Fibroblast cells assessed as inhibition of cell growth to EC50 for antitrypanosomal activity against Trypanosoma cruzi trypomastigotes assessed as parasite growth inhibition. In kind it is toxicity, cell-based. Conditions: read-out: Ratio CC50/EC50; call rule not given here.
The mark [2] stands for this setting: Trypanosoma cruzi, read-out: EC50.

`CCCCC(CC)CNC(=O)c1ccc(C(C)(C)C)cc1` (centres undefined): the EC50 entry with Trypanosoma cruzi is reported as “Not Active”. For the same molecule, the half-maximal cytotoxic concentration (CC50) in the data set with Fibroblast was more than 200 µM.
With `CCCCC(CC)COC(=O)c1ccc(F)cc1` (centres undefined), the EC50 with Trypanosoma cruzi (setting [2]) amounted to 42.4 µM. Further, in the data set with Fibroblast, the CC50 is more than 200 µM. In addition, the selectivity ratio in data set [1] is more than 4.7.
For `CCC/C=C/CCCOC(=O)c1ccccc1`, in that order: 77.4 µM, more than 200 µM and more than 2.6.
Regarding `CCC/C=C/CCCNC(=O)c1ccc(C)cc1`, the EC50 in the data set on Trypanosoma cruzi (setting [2]) is 37.7 µM. For the same molecule, in the data set with Fibroblast, the CC50 is more than 200 µM. The selectivity ratio in data set [1] is more than 5.3.
As to `CCC/C=C/CCCNC(=O)c1ccc([N+](=O)[O-])cc1`, the EC50 with Trypanosoma cruzi (setting [2]) was found to be 24.4 µM. Further, the CC50 in the data set with Fibroblast was 158 µM. Also, the selectivity ratio in data set [1] was 6.5.
For `CCCCC(CC)CNC(=O)c1ccc(C)cc1` (centres undefined), the EC50 with Trypanosoma cruzi (setting [2]) came out at 21.3 µM. The 50% cytotoxic concentration (CC50) with Fibroblast was more than 200 µM. Moreover, in data set [1], the selectivity ratio is more than 9.4.
As for `CCC/C=C/CCCNC(=O)c1ccc(Cl)cc1`, the EC50 in the data set with Trypanosoma cruzi (setting [2]) came to 28.7 µM. Moreover, in the data set with Fibroblast, the CC50 was more than 200 µM. For the same molecule, in data set [1], the selectivity ratio was more than 7.
In the case of `CCC/C=C/CCCNC(=O)c1ccc(F)cc1`, the EC50 in the data set with Trypanosoma cruzi (setting [2]) was determined as 71.4 µM. In addition, the CC50 with Fibroblast is more than 200 µM. The selectivity ratio in data set [1] is more than 2.8.
Take `CCCCC(CC)CNC(=O)c1ccc(F)cc1` (centres undefined): the EC50 in the data set on Trypanosoma cruzi (setting [2]) was 36.6 µM. Further, the CC50 in the data set with Fibroblast was determined as 157 µM. In addition, the selectivity ratio in data set [1] was 4.3.
Take `CCCCC/C=C/CCCOC(=O)c1ccc(O)cc1`: the EC50 in the data set on Trypanosoma cruzi (setting [2]) stood at 75.3 µM. The CC50 in the data set with Fibroblast is more than 200 µM. Moreover, the selectivity ratio in data set [1] was more than 2.7.
Consider `CCC/C=C/CCCNC(=O)c1ccc(OC)cc1`, for which, in the data set on Trypanosoma cruzi (setting [2]), the 50% effective concentration (EC50) worked out at 25.9 µM. In the data set with Fibroblast, the half-maximal cytotoxic concentration (CC50) is more than 200 µM. Moreover, the selectivity ratio in data set [1] is more than 7.7.
For `CCC/C=C/CCCOC(=O)c1ccc(OC)cc1`, in that order: 15.6 µM, more than 200 µM and more than 12.8.
On to `O=C(Cn1ccnc1[N+](=O)[O-])NCc1ccccc1` [BENZNIDAZOLE], for which the CC50 in the data set with Fibroblast was more than 200 µM. Also, the selectivity ratio in data set [1] was more than 16.
Take `CCC/C=C/CCCOC(=O)c1ccc([N+](=O)[O-])cc1`: in the data set on Trypanosoma cruzi (setting [2]), the EC50 was found to be 5.6 µM. Also, in the data set on Fibroblast, the CC50 was more than 200 µM. For the same molecule, the selectivity ratio in data set [1] is more than 35.1.
For `CCC/C=C/CCCNC(=O)c1ccc(C(C)(C)C)cc1`, in that order: 7.7 µM, more than 200 µM and more than 26.
Regarding `CCCCC(CC)CNC(=O)c1ccc([N+](=O)[O-])cc1` (centres undefined), the EC50 in the data set with Trypanosoma cruzi (setting [2]) was 22 µM. The 50% cytotoxic concentration (CC50) with Fibroblast was more than 200 µM. The selectivity ratio in data set [1] is more than 9.1.
For `CCC/C=C/CCCOC(=O)c1ccc(C(C)(C)C)cc1`, the EC50 result with Trypanosoma cruzi was “Not Active”. For the same molecule, in the data set on Fibroblast, the half-maximal cytotoxic concentration (CC50) is more than 200 µM.
As to `CCCCC(CC)COC(=O)c1ccc([N+](=O)[O-])cc1` (centres undefined), the EC50 in the data set on Trypanosoma cruzi (setting [2]) turned out to be 11.5 µM. In the data set with Fibroblast, the CC50 is more than 200 µM. The selectivity ratio in data set [1] was more than 17.4.
For `CCC/C=C/CCCOC(=O)c1ccc(F)cc1`, in that order: 20.8 µM, more than 200 µM and more than 9.6.
For `CCC/C=C/CCCNC(=O)c1ccccc1`, in that order: 71.3 µM, more than 200 µM and more than 2.8.
For `CCCCC(CC)COC(=O)c1ccc(C)cc1` (centres undefined), in that order: 19.7 µM, more than 200 µM and more than 10.2.
Consider `CCCCC(CC)CNC(=O)c1ccc(Cl)cc1` (centres undefined), for which the EC50 in the data set on Trypanosoma cruzi (setting [2]) came to 20.7 µM. For the same molecule, the CC50 in the data set on Fibroblast is more than 200 µM. Further, in data set [1], the selectivity ratio is more than 9.7.
For `CCCCC(CC)COC(=O)c1ccc(Cl)cc1` (centres undefined), the EC50 in the data set with Trypanosoma cruzi (setting [2]) was determined as 15.6 µM. Besides, the half-maximal cytotoxic concentration (CC50) with Fibroblast was more than 200 µM. The selectivity ratio in data set [1] is more than 12.8.
For `CCC/C=C/CCCOC(=O)c1ccc(C)cc1`, in that order: 11.7 µM, more than 200 µM and more than 17.1.
With `CCCCC(CC)COC(=O)c1ccc(C(C)(C)C)cc1` (centres undefined), in the data set with Trypanosoma cruzi, the EC50 result is recorded as “Not Active”. Further, the CC50 in the data set on Fibroblast was more than 200 µM.
Regarding `CCC/C=C/CCCOC(=O)c1ccc(Cl)cc1`, in the data set with Trypanosoma cruzi (setting [2]), the 50% effective concentration (EC50) turned out to be 19.8 µM. In addition, the 50% cytotoxic concentration (CC50) with Fibroblast is more than 200 µM. Further, the selectivity ratio in data set [1] was more than 10.1.
